Experiments:
Assay in all cases: pIC50, kinobeads binding competition
Conditions in all cases: cell material: Jurkat lysate
TESK2 = TESK2 (UniProt Q96S53)
TRRAP = TRRAP (UniProt Q9Y4A5)
MAP4K5 = MAP4K5 (UniProt Q9Y4K4)
UniProt O43318 = molecular target: T1, UniProt O43318
T1 sequence (whole entry): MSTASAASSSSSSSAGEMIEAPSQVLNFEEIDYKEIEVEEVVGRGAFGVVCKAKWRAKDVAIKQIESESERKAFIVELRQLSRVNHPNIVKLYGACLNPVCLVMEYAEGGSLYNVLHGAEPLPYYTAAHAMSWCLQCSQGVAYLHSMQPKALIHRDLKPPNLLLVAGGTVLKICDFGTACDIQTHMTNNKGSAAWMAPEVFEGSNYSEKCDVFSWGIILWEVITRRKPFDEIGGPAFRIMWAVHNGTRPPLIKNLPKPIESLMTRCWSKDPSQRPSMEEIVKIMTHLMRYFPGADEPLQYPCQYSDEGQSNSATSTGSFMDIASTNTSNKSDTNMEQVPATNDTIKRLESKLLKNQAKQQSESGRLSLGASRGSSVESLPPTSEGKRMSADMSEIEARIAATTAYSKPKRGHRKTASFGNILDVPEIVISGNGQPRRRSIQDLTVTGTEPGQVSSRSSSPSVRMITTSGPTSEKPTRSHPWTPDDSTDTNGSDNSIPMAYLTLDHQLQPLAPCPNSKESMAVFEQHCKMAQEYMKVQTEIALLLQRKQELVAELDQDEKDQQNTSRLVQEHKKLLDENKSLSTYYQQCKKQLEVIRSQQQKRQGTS

UniProt Q99759 = molecular target: T2, UniProt Q99759
T2 sequence (whole entry): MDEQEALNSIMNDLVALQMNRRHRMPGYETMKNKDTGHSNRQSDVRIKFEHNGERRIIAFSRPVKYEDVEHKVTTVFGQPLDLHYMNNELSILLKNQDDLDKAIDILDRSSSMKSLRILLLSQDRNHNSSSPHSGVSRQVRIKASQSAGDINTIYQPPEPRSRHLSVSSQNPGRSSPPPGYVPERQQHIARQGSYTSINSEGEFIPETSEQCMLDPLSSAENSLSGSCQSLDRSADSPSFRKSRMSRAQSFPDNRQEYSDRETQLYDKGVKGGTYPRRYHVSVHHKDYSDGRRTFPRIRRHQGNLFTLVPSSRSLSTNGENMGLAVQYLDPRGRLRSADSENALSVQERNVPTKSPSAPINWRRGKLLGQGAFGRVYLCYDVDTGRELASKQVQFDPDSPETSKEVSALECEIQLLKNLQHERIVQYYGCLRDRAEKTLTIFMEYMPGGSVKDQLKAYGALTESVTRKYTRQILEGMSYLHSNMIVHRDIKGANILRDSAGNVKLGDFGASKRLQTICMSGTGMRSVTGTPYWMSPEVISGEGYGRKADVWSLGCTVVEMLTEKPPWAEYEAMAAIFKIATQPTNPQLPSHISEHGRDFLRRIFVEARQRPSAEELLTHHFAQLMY

UniProt Q16659 = molecular target: UniProt Q16659
PRKCB = PRKCB (UniProt P05771)
PRKCB, sequence (P05771 whole entry, looked up): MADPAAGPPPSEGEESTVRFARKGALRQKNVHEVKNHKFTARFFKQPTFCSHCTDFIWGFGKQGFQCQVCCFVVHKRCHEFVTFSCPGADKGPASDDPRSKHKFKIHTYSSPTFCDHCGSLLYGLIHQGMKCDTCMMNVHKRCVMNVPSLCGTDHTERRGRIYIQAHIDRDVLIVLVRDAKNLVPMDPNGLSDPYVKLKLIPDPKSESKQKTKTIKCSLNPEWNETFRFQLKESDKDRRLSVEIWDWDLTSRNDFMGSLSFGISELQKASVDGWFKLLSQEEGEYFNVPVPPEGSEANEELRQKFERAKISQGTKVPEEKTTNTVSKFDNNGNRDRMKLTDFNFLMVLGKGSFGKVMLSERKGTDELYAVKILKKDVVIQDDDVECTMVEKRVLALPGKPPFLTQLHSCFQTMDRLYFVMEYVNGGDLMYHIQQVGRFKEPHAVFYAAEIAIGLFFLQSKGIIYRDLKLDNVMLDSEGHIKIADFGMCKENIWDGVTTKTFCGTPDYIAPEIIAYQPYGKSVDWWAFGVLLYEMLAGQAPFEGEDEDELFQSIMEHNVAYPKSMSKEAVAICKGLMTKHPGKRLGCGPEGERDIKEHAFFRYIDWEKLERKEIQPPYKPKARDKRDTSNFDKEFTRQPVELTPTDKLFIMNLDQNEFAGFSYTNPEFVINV

PIK3R4 = PIK3R4 (UniProt Q99570)
UniProt Q16512 = molecular target: UniProt Q16512
UniProt Q16512, sequence (Q16512 whole entry, looked up): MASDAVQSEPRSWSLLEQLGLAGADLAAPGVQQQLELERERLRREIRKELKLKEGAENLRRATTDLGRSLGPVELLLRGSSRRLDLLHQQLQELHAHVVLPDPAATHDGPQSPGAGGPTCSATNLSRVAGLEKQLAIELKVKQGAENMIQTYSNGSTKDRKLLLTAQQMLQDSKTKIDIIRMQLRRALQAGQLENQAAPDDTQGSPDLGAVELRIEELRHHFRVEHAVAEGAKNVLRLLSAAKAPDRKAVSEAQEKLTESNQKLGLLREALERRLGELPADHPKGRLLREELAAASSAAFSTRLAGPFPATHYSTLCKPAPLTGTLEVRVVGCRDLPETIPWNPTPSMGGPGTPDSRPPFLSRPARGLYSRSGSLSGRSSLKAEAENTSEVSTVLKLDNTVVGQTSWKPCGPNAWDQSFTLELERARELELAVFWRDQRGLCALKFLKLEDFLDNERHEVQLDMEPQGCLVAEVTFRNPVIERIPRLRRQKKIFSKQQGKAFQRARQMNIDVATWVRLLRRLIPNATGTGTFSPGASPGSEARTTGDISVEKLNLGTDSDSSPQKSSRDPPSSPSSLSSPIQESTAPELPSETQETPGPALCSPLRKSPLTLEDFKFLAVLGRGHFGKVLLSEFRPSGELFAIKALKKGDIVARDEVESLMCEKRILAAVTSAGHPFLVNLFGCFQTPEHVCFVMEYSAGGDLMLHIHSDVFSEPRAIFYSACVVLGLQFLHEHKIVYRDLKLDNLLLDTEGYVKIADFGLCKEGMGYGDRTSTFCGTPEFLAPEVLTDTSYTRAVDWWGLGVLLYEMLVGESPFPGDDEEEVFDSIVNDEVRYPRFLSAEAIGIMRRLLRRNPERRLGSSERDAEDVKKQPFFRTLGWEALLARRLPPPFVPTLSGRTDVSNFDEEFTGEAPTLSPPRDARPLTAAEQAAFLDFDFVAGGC

SGK3 = molecular target: T3, SGK3 (UniProt Q96BR1)
T3 sequence (whole entry): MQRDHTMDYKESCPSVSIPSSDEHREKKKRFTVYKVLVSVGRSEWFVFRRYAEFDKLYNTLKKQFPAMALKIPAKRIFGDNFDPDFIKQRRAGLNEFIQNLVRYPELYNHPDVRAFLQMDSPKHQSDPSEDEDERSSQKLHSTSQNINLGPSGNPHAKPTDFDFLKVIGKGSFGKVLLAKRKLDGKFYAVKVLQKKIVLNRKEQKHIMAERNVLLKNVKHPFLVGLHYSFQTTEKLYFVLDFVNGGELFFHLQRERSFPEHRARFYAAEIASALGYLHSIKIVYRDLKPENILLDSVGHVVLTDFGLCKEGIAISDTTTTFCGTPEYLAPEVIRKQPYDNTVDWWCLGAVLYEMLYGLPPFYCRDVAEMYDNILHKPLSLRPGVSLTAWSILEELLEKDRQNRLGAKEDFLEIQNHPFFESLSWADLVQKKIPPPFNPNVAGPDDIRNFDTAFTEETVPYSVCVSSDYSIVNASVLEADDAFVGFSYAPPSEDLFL

UniProt P49841 = molecular target: UniProt P49841
EIF2AK4 = EIF2AK4 (UniProt Q9P2K8)
MARK2 = MARK2 (UniProt Q7KZI7)
WEE1 = WEE1 (UniProt P30291)
WEE1, sequence (P30291 whole entry, looked up): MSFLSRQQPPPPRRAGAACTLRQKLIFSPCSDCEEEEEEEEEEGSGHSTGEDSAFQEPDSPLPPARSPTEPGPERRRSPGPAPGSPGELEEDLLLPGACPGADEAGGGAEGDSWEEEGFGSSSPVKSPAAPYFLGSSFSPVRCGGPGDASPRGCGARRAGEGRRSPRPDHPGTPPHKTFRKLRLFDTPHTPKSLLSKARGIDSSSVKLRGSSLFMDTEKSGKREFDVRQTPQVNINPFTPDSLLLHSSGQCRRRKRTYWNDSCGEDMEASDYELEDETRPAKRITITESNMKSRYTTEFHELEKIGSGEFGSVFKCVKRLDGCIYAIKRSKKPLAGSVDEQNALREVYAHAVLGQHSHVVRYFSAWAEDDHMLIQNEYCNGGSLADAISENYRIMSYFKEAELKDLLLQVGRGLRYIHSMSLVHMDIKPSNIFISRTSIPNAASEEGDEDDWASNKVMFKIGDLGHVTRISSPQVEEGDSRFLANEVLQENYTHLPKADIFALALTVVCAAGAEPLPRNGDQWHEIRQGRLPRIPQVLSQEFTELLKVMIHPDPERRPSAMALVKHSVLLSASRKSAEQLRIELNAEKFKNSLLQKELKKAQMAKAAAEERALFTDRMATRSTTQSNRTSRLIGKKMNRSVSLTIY

CSK = CSK (UniProt P41240)
CSK, sequence (P41240 whole entry, looked up): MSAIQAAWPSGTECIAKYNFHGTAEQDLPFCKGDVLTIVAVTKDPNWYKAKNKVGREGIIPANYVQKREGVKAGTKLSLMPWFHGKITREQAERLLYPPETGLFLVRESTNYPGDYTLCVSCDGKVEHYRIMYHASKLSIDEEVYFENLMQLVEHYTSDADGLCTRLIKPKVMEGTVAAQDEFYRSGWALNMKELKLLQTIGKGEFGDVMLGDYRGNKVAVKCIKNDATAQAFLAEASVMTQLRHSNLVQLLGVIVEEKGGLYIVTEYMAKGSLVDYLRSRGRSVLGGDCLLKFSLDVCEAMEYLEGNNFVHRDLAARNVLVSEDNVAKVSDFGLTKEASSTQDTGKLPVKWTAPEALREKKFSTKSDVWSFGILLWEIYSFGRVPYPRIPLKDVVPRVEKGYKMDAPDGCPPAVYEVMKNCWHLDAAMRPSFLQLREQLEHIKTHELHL

UniProt Q13233 = molecular target: UniProt Q13233
UniProt Q13233, sequence (Q13233 whole entry): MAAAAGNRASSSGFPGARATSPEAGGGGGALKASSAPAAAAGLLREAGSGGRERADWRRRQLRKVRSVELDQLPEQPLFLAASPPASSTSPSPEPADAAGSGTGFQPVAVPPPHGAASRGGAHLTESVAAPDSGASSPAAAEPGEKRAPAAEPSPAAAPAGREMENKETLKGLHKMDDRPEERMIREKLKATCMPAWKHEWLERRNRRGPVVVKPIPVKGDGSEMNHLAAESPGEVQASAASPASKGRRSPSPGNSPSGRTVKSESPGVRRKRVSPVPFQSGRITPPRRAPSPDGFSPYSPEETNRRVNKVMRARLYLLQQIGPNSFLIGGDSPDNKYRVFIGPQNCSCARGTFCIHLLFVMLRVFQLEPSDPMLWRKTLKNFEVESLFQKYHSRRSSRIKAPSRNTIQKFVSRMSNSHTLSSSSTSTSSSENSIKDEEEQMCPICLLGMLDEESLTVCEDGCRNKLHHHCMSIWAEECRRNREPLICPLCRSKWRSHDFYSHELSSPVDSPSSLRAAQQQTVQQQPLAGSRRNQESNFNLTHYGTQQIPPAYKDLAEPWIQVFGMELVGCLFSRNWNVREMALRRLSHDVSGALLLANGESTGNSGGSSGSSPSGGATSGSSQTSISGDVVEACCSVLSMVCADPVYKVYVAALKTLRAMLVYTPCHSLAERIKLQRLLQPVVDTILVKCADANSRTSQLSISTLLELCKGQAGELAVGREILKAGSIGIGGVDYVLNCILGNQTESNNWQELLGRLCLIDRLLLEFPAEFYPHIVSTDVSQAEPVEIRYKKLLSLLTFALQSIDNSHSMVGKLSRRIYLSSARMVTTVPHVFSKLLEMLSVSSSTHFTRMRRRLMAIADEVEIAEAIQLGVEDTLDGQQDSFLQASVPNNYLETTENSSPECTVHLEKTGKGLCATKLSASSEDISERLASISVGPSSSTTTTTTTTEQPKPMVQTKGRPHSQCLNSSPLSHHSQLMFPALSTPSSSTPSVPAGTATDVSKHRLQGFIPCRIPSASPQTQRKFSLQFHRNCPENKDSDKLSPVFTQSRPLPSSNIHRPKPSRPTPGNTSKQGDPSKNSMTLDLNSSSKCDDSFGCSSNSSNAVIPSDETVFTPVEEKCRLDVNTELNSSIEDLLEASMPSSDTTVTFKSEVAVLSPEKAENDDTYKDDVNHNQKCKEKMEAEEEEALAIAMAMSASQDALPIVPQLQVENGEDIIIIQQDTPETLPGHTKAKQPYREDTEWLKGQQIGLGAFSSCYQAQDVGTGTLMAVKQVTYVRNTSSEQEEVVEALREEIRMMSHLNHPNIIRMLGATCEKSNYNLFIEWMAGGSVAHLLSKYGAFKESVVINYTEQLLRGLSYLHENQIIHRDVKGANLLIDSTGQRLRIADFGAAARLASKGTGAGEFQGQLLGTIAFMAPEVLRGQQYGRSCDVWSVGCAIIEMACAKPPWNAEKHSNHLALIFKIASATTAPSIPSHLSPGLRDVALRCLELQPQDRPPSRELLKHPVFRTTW

UniProt O95747 = molecular target: UniProt O95747
TGFBR2 = TGFBR2 (UniProt P37173)
TGFBR2, sequence (P37173 whole entry): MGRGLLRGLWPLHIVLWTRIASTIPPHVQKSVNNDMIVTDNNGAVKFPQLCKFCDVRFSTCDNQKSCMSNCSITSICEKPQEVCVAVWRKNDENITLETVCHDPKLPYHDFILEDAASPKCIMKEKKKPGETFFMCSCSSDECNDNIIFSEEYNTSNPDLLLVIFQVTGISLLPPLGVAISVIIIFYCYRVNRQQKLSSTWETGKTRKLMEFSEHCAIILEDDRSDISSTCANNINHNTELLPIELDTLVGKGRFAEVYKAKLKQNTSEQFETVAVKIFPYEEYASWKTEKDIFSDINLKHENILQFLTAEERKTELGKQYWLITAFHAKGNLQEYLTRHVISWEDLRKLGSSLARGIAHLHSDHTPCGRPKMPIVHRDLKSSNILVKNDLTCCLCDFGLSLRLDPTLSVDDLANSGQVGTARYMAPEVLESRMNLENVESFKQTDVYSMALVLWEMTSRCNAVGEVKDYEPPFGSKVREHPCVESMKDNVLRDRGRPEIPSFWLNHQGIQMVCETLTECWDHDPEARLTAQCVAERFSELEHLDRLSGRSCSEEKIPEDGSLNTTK

Measured: pIC50

CCc1cnn2c(NCc3ccc[n+]([O-])c3)cc(N3CCCC[C@H]3CCO)nc12 [dinaciclib]
< 4.52: TESK2 | TRRAP | MAP4K5 | UniProt O43318 | UniProt Q99759 | UniProt Q16659 | PRKCB | PIK3R4 | UniProt Q16512 | SGK3 | UniProt P49841 | EIF2AK4 | MARK2 | WEE1 | CSK | UniProt Q13233 | UniProt O95747 | TGFBR2
